This note sets out measurements from the OligoGym collection.

HELM strings list units from the 5' end as sugar, base in round brackets, then linkage (d deoxyribose, r ribose, m 2'-O-methyl, p phosphodiester). Strings are as the collection lists them; they lack the last nucleoside at the 3' end of the tested compound. [moe] = 2'-O-(2-methoxyethyl) (MOE); [sp] = phosphorothioate linkage; [m5C] = 5-methylcytosine

The data set deals with APP. Nature of the data set: mouse, dose not given. The conditions noted are these: ASO.

Regarding “RNA1{[moe](G)[sp].[moe]([m5C])p.[moe](A)p.[moe](T)p.[moe]([m5C])[sp].d(T)[sp].d(T)[sp].d(T)[sp].d(T)[sp].d(A)[sp].d([m5C])[sp].d(T)[sp].d(A)[sp].d(T)[sp].d([m5C])[sp].[moe](T)p.[moe](G)p.[moe]([m5C])[sp].[moe]([m5C])}$$$$ (last 3' nucleoside missing)”, the 3 h FOB score is 0 score 0-7.
As to “RNA1{[moe](G)[sp].[moe]([m5C])p.[moe](A)p.[moe]([m5C])p.[moe](A)[sp].d(A)[sp].d(A)[sp].d(T)[sp].d(T)[sp].d(T)[sp].d(T)[sp].d(A)[sp].d(T)[sp].d([m5C])[sp].d(A)[sp].[moe]([m5C])p.[moe](A)p.[moe](T)[sp].[moe]([m5C])}$$$$ (last 3' nucleoside missing)”, the 3 h FOB score came to 0 score 0-7.
With “RNA1{[moe](G)[sp].[moe]([m5C])p.[moe](A)p.[moe]([m5C])p.[moe](A)[sp].d(A)[sp].d(T)[sp].d(T)[sp].d(A)[sp].d(T)[sp].d(T)[sp].d(G)[sp].d(T)[sp].d(T)[sp].d(T)[sp].[moe]([m5C])p.[moe]([m5C])p.[moe](T)[sp].[moe]([m5C])}$$$$ (last 3' nucleoside missing)”, the 3 h FOB score is 1 score 0-7.
“RNA1{[moe](G)[sp].[moe]([m5C])p.[moe](A)p.[moe]([m5C])p.[moe](A)[sp].d(A)[sp].d([m5C])[sp].d(T)[sp].d(T)[sp].d(T)[sp].d(A)[sp].d(T)[sp].d(T)[sp].d(T)[sp].d([m5C])[sp].[moe](T)p.[moe](A)p.[moe](G)[sp].[moe](A)}$$$$ (last 3' nucleoside missing)” gave a 3 h FOB score of 1 score 0-7.
“RNA1{[moe](G)[sp].[moe]([m5C])p.[moe](A)p.[moe]([m5C])p.[moe](T)[sp].d(A)[sp].d([m5C])[sp].d(A)[sp].d(T)[sp].d(T)[sp].d(G)[sp].d([m5C])[sp].d(T)[sp].d(T)[sp].d([m5C])[sp].[moe](A)p.[moe](T)p.[moe](A)[sp].[moe]([m5C])}$$$$ (last 3' nucleoside missing)”: the 3 h FOB score turned out to be 1 score 0-7.
Substance “RNA1{[moe](G)[sp].[moe]([m5C])p.[moe](A)p.[moe]([m5C])p.[moe]([m5C])[sp].d(A)[sp].d(T)[sp].d([m5C])[sp].d(T)[sp].d(A)[sp].d(T)[sp].d(A)[sp].d(A)[sp].d(T)[sp].d(A)[sp].[moe]([m5C])p.[moe]([m5C])p.[moe](A)[sp].[moe](T)}$$$$ (last 3' nucleoside missing)” came in with a 3 h FOB score of 0 score 0-7.
With “RNA1{[moe](G)[sp].[moe]([m5C])p.[moe](G)p.[moe](G)p.[moe](A)[sp].d([m5C])[sp].d(A)[sp].d(T)[sp].d(A)[sp].d([m5C])[sp].d(T)[sp].d(T)[sp].d([m5C])[sp].d(T)[sp].d(T)[sp].[moe](T)p.[moe](A)p.[moe](G)[sp].[moe]([m5C])}$$$$ (last 3' nucleoside missing)”, the 3 h FOB score is 0 score 0-7.
For “RNA1{[moe](G)[sp].[moe]([m5C])p.[moe](G)p.[moe]([m5C])p.[moe](A)[sp].d(T)[sp].d(T)[sp].d(T)[sp].d(A)[sp].d(T)[sp].d(A)[sp].d([m5C])[sp].d(A)[sp].d(A)[sp].d(T)[sp].[moe](A)p.[moe](T)p.[moe](A)[sp].[moe]([m5C])}$$$$ (last 3' nucleoside missing)”, the 3 h FOB score came out at 0 score 0-7.
As for “RNA1{[moe](G)[sp].[moe]([m5C])p.[moe](G)p.[moe]([m5C])p.[moe](A)[sp].d(T)[sp].d(T)[sp].d(T)[sp].d(A)[sp].d([m5C])[sp].d(T)[sp].d(A)[sp].d(G)[sp].d([m5C])[sp].d(A)[sp].[moe]([m5C])p.[moe](A)p.[moe](T)[sp].[moe](T)}$$$$ (last 3' nucleoside missing)”, the figure is 1.67 score 0-7.
In turn, “RNA1{[moe](G)[sp].[moe]([m5C])p.[moe](T)p.[moe](A)p.[moe](T)[sp].d(G)[sp].d(A)[sp].d([m5C])[sp].d(A)[sp].d(A)[sp].d([m5C])[sp].d(A)[sp].d([m5C])[sp].d([m5C])[sp].d(G)[sp].[moe]([m5C])p.[moe]([m5C])p.[moe]([m5C])[sp].[moe](A)}$$$$ (last 3' nucleoside missing)” showed a 3 h FOB score of 1 score 0-7.
In the case of “RNA1{[moe](G)[sp].[moe]([m5C])p.[moe](T)p.[moe](A)p.[moe]([m5C])[sp].d(A)[sp].d(A)[sp].d(T)[sp].d(T)[sp].d(A)[sp].d(T)[sp].d([m5C])[sp].d([m5C])[sp].d(A)[sp].d([m5C])[sp].[moe](A)p.[moe](T)p.[moe](G)[sp].[moe](G)}$$$$ (last 3' nucleoside missing)”, the 3 h FOB score worked out at 0 score 0-7.
As for “RNA1{[moe](G)[sp].[moe]([m5C])p.[moe](T)p.[moe](G)p.[moe](T)[sp].d(T)[sp].d(G)[sp].d(T)[sp].d(A)[sp].d(G)[sp].d(G)[sp].d(A)[sp].d(A)[sp].d([m5C])[sp].d(T)[sp].[moe]([m5C])p.[moe](G)p.[moe](A)[sp].[moe](A)}$$$$ (last 3' nucleoside missing)”, the figure is 4 score 0-7.
Substance “RNA1{[moe](G)[sp].[moe]([m5C])p.[moe](T)p.[moe](T)p.[moe](A)[sp].d([m5C])[sp].d(A)[sp].d(T)[sp].d([m5C])[sp].d(A)[sp].d(T)[sp].d(T)[sp].d(T)[sp].d(T)[sp].d([m5C])[sp].[moe](T)p.[moe](T)p.[moe](G)[sp].[moe]([m5C])}$$$$ (last 3' nucleoside missing)” had a 3 h FOB score of 0 score 0-7.
As for “RNA1{[moe](G)[sp].[moe]([m5C])p.[moe](T)p.[moe](T)p.[moe]([m5C])[sp].d(A)[sp].d(T)[sp].d(T)[sp].d(A)[sp].d([m5C])[sp].d([m5C])[sp].d(A)[sp].d([m5C])[sp].d(T)[sp].d(T)[sp].[moe]([m5C])p.[moe](T)p.[moe](G)[sp].[moe](A)}$$$$ (last 3' nucleoside missing)”, the figure is 1 score 0-7; as for “RNA1{[moe](G)[sp].[moe]([m5C])p.[moe](T)p.[moe]([m5C])p.[moe](A)[sp].d(G)[sp].d(A)[sp].d(G)[sp].d([m5C])[sp].d([m5C])[sp].d(A)[sp].d(G)[sp].d(G)[sp].d([m5C])[sp].d(G)[sp].[moe](A)p.[moe](G)p.[moe](T)[sp].[moe]([m5C])}$$$$ (last 3' nucleoside missing)”, 3 score 0-7.
In turn, “RNA1{[moe](G)[sp].[moe]([m5C])p.[moe](T)p.[moe]([m5C])p.[moe](A)[sp].d(T)[sp].d(T)[sp].d(T)[sp].d(T)[sp].d(T)[sp].d(T)[sp].d(T)[sp].d(T)[sp].d(A)[sp].d([m5C])[sp].[moe](A)p.[moe](T)p.[moe](G)[sp].[moe](A)}$$$$ (last 3' nucleoside missing)” returned a 3 h FOB score of 0 score 0-7.
Regarding “RNA1{[moe](G)[sp].[moe]([m5C])p.[moe]([m5C])p.[moe](A)p.[moe](A)[sp].d([m5C])[sp].d(T)[sp].d(T)[sp].d(A)[sp].d(T)[sp].d(T)[sp].d([m5C])[sp].d(T)[sp].d([m5C])[sp].d(A)[sp].[moe](A)p.[moe](G)p.[moe](G)[sp].[moe](G)}$$$$ (last 3' nucleoside missing)”, the 3 h FOB score is 1 score 0-7.
Next, “RNA1{[moe](G)[sp].[moe]([m5C])p.[moe]([m5C])p.[moe](A)p.[moe](T)[sp].d(A)[sp].d(T)[sp].d(T)[sp].d(G)[sp].d(T)[sp].d([m5C])[sp].d(A)[sp].d(T)[sp].d(T)[sp].d(T)[sp].[moe](T)p.[moe](A)p.[moe]([m5C])[sp].[moe](A)}$$$$ (last 3' nucleoside missing)”: 1.33 score 0-7; “RNA1{[moe](G)[sp].[moe]([m5C])p.[moe]([m5C])p.[moe](T)p.[moe](T)[sp].d(A)[sp].d(T)[sp].d(T)[sp].d(A)[sp].d(T)[sp].d([m5C])[sp].d(T)[sp].d([m5C])[sp].d(A)[sp].d(A)[sp].[moe](A)p.[moe]([m5C])p.[moe](T)[sp].[moe]([m5C])}$$$$ (last 3' nucleoside missing)”: 0 score 0-7; “RNA1{[moe](T)[sp].[moe](A)p.[moe](G)p.[moe](G)p.[moe](A)[sp].d(A)[sp].d([m5C])[sp].d(T)[sp].d([m5C])[sp].d(G)[sp].d(A)[sp].d(A)[sp].d([m5C])[sp].d([m5C])[sp].d(A)[sp].[moe]([m5C])p.[moe]([m5C])p.[moe](T)[sp].[moe]([m5C])}$$$$ (last 3' nucleoside missing)”: 0.5 score 0-7.
Substance “RNA1{[moe](T)[sp].[moe](A)p.[moe](G)p.[moe](T)p.[moe](A)[sp].d([m5C])[sp].d(A)[sp].d(T)[sp].d(T)[sp].d([m5C])[sp].d([m5C])[sp].d(A)[sp].d([m5C])[sp].d(T)[sp].d(T)[sp].[moe](T)p.[moe](G)p.[moe](T)[sp].[moe](T)}$$$$ (last 3' nucleoside missing)” returned a 3 h FOB score of 0 score 0-7.
Substance “RNA1{[moe](T)[sp].[moe](A)p.[moe](T)p.[moe](G)p.[moe](A)[sp].d([m5C])[sp].d(A)[sp].d(A)[sp].d([m5C])[sp].d(A)[sp].d([m5C])[sp].d([m5C])[sp].d(G)[sp].d([m5C])[sp].d([m5C])[sp].[moe]([m5C])p.[moe](A)p.[moe]([m5C])[sp].[moe]([m5C])}$$$$ (last 3' nucleoside missing)” registered a 3 h FOB score of 4 score 0-7.
In turn, “RNA1{[moe](T)[sp].[moe](A)p.[moe]([m5C])p.[moe](A)p.[moe](T)[sp].d([m5C])[sp].d(A)[sp].d(T)[sp].d(T)[sp].d(T)[sp].d(T)[sp].d([m5C])[sp].d(T)[sp].d(T)[sp].d(G)[sp].[moe]([m5C])p.[moe](A)p.[moe](G)[sp].[moe](T)}$$$$ (last 3' nucleoside missing)” displayed a 3 h FOB score of 2.75 score 0-7.
Substance “RNA1{[moe](T)[sp].[moe](G)[sp].[moe](T)[sp].[moe]([m5C])[sp].[moe](A)[sp].d([m5C])[sp].d(T)[sp].d(T)[sp].d(T)[sp].d([m5C])[sp].d(T)[sp].d(T)[sp].d([m5C])[sp].d(A)[sp].d(G)[sp].[moe]([m5C])[sp].[moe]([m5C])[sp].[moe](A)[sp].[moe](G)}$$$$ (last 3' nucleoside missing)” returned a 3 h FOB score of 6 score 0-7.
As for “RNA1{[moe](T)[sp].[moe](G)p.[moe](A)p.[moe](T)p.[moe](G)[sp].d([m5C])[sp].d(A)[sp].d([m5C])[sp].d(A)[sp].d(T)[sp].d(A)[sp].d(T)[sp].d([m5C])[sp].d([m5C])[sp].d(A)[sp].[moe](G)p.[moe](G)p.[moe]([m5C])[sp].[moe](T)}$$$$ (last 3' nucleoside missing)”, the figure is 0.25 score 0-7.
